Measured values as given in patent publication US7459284B2, “Chemiluminescent acridinium compounds and analogues thereof as substrates of hydrolytic enzymes” (Siemens Healthcare Diagnostics Inc., priority 1999, dated 2008).

Legend:
[1] = Light emission spectra by Fast Spectral Scanning System (FSSS); type: physicochemical
Procedure: The light emission spectra of compounds 1˜12 and 15˜18 were determined by a Fast Spectral Scanning System (FSSS) of Photo Research (a division of Kollmorgen Corp.) of Burbank, Calif., U.S.A. The experiment was carried out in a dark room. Each compound was dissolved in acetonitrile or N,N-dimethylformamide. The resulting concentrate was diluted with the same solvent to form the working solution, which upon flashing gave a light emission with an adequate intensity. A typical experiment utilized 10˜100 μg or more of the sample in 500 μl of the solvent contained in a 13×100 mm borosilicate test tube. The tube was placed on a test tube rack raised to a proper height. A piece of aluminum foil was placed on the back of the tube to enhance the detectability of the emitted light. The FSSS optical head was placed in front of the tube at an approximate distance of about 130 mm with its lens focused on the liquid in the tube. The sample solution was first treated with 0.35 ml of the Flashing Reagent #1 (Bayer Diagnostics) containing 0.1 N HNO3 and 0.5% H2O2. The room was then darkened, and 0.35 ml of the Flashing Reagent #2 (Bayer Diagnostics) containing 0.25 N NaOH and 0.5% ARQUAD was added to the reaction mixture immediately. (See U.S. Pat. No. 4,927,769, which is commonly assigned and incorporated herein by reference.) The light which was generated instantaneously following the addition of the Reagent #2 was recorded by FSSS for 5 seconds starting from about one second before the Reagent #2 was added.

alkaline phosphatase [2] = molecular target: T1, alkaline phosphatase (Bos taurus, UniProt P19111); experiment: Alkaline phosphatase assay using 4′-Phos-AE (17) as chemiluminescent substrate; type: biochemical; details: 0.1 mM substrate, pH 9 Tris, 3-4 hours room temperature; 0.1 ml reaction volume; measuring time 0.3 s
T1 sequence (P19111 20-506): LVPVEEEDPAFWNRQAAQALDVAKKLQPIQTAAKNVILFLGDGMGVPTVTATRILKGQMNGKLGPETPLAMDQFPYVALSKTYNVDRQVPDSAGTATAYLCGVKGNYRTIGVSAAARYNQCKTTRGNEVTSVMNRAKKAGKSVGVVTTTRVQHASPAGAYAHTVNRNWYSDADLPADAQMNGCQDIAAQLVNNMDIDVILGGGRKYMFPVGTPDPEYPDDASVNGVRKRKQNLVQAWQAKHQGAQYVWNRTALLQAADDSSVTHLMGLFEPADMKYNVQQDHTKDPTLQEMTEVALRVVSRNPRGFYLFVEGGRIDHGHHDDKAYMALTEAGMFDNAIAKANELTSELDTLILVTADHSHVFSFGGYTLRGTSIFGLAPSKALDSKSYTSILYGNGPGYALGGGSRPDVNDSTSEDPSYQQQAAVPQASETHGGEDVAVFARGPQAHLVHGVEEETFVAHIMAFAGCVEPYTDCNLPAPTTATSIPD
Procedure: Treatment of a solution of 4′-Phos-AE (17, 0.1 mM,) in 100 mM Tris pH 9, 1 mM MgCl2 with varying concentrations of alkaline phosphatase was carried out. The reactions were incubated for 3-4 hours at room temperature and were then sequentially diluted 10^4-fold into ‘flash buffer’ which contains 10 mM phosphate pH 8 with 150 mM NaCl, 0.1% BSA and 0.05% sodium azide. Chemiluminescence of a 25 μL solution was measured on a Bayer Diagnostics' Magic Lite Ananlyzer (MAL1) equipped with a BG38 filter. A measuring time of 0.3 s was employed. Evaluation of the chemiluminescent activity of the reactions indicated a steady decrease in total chemiluminesence with increasing concentrations of enzyme. Thus, as the concentration of enzyme is increased, a greater proportion of the fast-emitting substrate 4′-Phos-AE is converted to the slow-emitting product 4′-OH-AE (18) leading to an overall decrease in light output (at a short measuring time). Alkaline phosphatase was easily detected at 5×10^−17 moles (0.1 ml reaction volume) in this assay.

[3] = Light emission kinetics of substrate vs product; type: physicochemical; details: short measuring times (0.5-0.3 s)
Source text: One of the more preferred chemiluminescent acridinium substrates of Formula XIII is compound 4′-Phos-AE (17).

alkaline phosphatase [4] = molecular target: T1, alkaline phosphatase; experiment: Enzymatic conversion of substrate by alkaline phosphatase (HPLC analysis); type: biochemical; details: alkaline aqueous medium; about 1 hour
Procedure: A 1 mM DMF solution of the acridinium 3-enol-phosphate (13) was mixed with 150 μL of 100 mM Tris pH 9 also containing 1 mM MgCl2. Alkaline phosphatase (5 μl of a 2 mg/ml solution) was added and the reaction was incubated at room temperature for ˜1 hour. […] The product was isolated by semi-preparative HPLC using a 7.8×300 mm, C18 column. MALDI-TOF MS of the product indicated this was indeed the keto product (14): m/z 521.36 obs. (520.56 calc.).
A 20 μL DMF solution of the acridan (15) (1.7 mM) was combined with 180 μl of 0.15 M 2-amino-2-methyl-1-propanol pH 10.3 also containing 1 mM magnesium acetate. A clear blue solution was obtained (0.17 mM substrate), which was then treated with alkaline phosphatase (10^−10 moles). The blue color was discharged instantly. […] The reaction mixture was then evaluated by the FSSS to determine the light emission spectrum of the product, which is shown in FIG. 2N. The product was isolated by semi-preparative HPLC. […] (521.56 calc.).

C[n+]1c2ccccc2c(C(=O)Oc2ccc(OP(=O)(O)O)cc2)c2ccccc21 [Compound 17, 4′-phosphophenyl 10-methyl acridinium-9-carboxylate trifluoromethanesulfonate]
Emission Maximum ([1]; FSSS, hydrogen peroxide in strong alkaline solution): 436 nm
Emission Range ([1]; spectral region with signal intensity above 5% of peak height, FSSS scanning limit 380-780 nm, flashed with 0.1 N HNO3/0.5% H2O2 then 0.25 N NaOH/0.5% ARQUAD): 410-540 nm
level of alkaline phosphatase detected (alkaline phosphatase [2]): 5e-17 mol
speed of light emission relative to product 18 [3]: ~190 times
conversion by alkaline phosphatase (alkaline phosphatase [4]): readily converted
